Experimental data published in patent US20250041278A1, “TLR8 AGONIST FOR MODULATING IMMUNE RESPONSE” (The Children's Medical Center Corporation, priority 2021, published 2025).

Tests used:
[1] = system: human monocyte derived macrophages; assay: TNF ELISA in human monocyte derived macrophages; format: cell-based; details: 20-24 hours
Method: FIGS. 4A-4D. PVP-179 activates human macrophages and dendritic cells. FIGS. 4A-4B: Murine mononuclear cells were isolated from bone marrow and induced differentiation into dendritic cells (with GM-CSF and IL-4). After 5 days of culturing, these bone-marrow-derived dendritic cells (BMDCs) were stimulated with PVP-179 or MPLA for 18 hours at indicated concentrations. The supernatants were analyzed via ELISA where each dot in the graph represents the mean production of mTNF (FIG. 4A) and mIL-6 (FIG. 4B). N=6 for PVP-179, N=3 for MPLA. Two-way Anova was performed to determine statistical significance. The comparisons shown are compared to control group (0 M PVP-179). FIGS. 4C-4D: PBMCs were isolated from blood of adult human donors. CD14+ monocytes were specifically isolated from the PBMCs and were then cultured in 10% autologous plasma and induced to differentiate into macrophages with M-CSF (FIG. 4C), or dendritic cells with GM-CSF and IL-4 (FIG. 4D). After 5 days, cells were harvested from each differentiated cell type (macrophages: Mφ; dendritic cells: MoDCs) and a 96-well plate was setup with 100,000 cells/well. Cells were then stimulated with indicated concentrations of PVP-179 or R848 (33 μM) or LPS (100 ng/mL). After 20-24 hours of incubation, supernatants were harvested and applied to TNF ELISA. N=2 donors.

hTLR7 = target: T1, hTLR7 (Homo sapiens, UniProt Q9NYK1); assay: HEK hTLR7 NF-κB SEAP reporter assay; format: cell-based; details: even at higher concentrations
T1 construct: expressed in transfected cells; host or cells: HEK reporter cells
T1 sequence (Q9NYK1 27-1049): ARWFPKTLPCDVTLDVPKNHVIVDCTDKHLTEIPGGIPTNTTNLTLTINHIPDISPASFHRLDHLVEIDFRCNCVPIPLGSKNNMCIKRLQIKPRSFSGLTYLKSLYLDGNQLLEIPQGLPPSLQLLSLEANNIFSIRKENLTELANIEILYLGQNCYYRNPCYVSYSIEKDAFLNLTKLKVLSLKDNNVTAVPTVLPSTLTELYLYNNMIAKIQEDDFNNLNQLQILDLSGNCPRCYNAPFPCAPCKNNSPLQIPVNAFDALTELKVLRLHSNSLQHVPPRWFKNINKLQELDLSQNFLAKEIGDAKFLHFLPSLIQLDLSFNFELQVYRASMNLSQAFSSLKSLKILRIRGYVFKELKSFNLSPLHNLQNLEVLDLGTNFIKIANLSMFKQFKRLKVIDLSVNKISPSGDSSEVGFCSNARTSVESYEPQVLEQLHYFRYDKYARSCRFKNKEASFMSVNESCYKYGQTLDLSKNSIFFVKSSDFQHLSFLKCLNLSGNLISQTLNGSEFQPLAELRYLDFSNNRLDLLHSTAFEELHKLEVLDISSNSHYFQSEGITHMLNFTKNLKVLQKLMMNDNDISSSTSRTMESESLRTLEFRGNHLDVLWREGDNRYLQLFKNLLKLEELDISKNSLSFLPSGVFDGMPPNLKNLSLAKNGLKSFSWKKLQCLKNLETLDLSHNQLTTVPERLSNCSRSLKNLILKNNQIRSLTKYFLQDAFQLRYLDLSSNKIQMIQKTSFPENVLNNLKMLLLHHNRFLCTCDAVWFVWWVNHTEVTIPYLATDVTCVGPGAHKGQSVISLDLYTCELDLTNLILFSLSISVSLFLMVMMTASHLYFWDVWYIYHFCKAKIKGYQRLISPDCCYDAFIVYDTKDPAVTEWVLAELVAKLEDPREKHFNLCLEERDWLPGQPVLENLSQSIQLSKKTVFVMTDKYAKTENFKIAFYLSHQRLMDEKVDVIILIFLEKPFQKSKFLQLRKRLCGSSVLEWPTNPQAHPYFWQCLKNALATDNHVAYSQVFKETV
Method: FIGS. 3A-3E. PVP-179 is a TLR8 agonist. FIG. 3A: PVP-179 was sent to InvivoGen for PRR ligand screening service. Various cells lines were utilized to screen for PVP-179-induced ([…]) activation of TLRs, NOD1/2, RIG-I/MDA-5, Dectin-1 or Mincle receptor. The heat-map depicts percentage activity compared to the positive control for each receptor. FIG. 3B: PVP-179 induced activity (% activity compared to the positive control: CL075 at 1 μg/mL) in HEK-293 cells specifically expressing hTLR8. In brief, these cells have an NF-κB/AP-1-inducible secreted embryonic alkaline phosphatase (SEAP) reporter gene which allows monitoring of signaling via TLR8. After incubation for 16-24 hours, supernatant harvested from the cells is mixed with media containing SEAP-substrate and the optical density (OD) is measured at 650 nm using a spectrophotometer. FIG. 3C: As in FIG. 3B, HEK cells specifically expressing hTLR2, hTLR7, or hTLR8, in addition to the HEK-Null cell line carrying only the reporter gene, were stimulated with the indicated concentrations of PVP-179. […] PVP-179 activity is expressed as a percentage of NF-κB induced in the cells stimulated with TNF (positive control for each cell line). […] The supernatants were harvested after 20-24 hours and SEAP production (to assess NF-κB activity) was measured using QUANTIBlue assay. […]

SMILES: CCCCn1c(/N=C/c2nc3ccccc3n2C)nc2ccccc21 [PVP-179]
- TNF-inducing activity [1]: concentration-dependent activity
- NF-κB activity in HEK cells expressing hTLR7 (hTLR7): no activity was detected
